The record followed here is patent US12617779B2, “Self degradation-type CDK9 inhibitor prodrug and liposome encapsulating same” (Sumitomo Pharma Co., Ltd., priority 2021, dated 2026).

Series [1] in a line: Liposome encapsulation test, remote loading method (Experimental Example 4).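 For Encapsulation efficiency: encapsulated compound as percent of compound amount introduced.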 Format: physicochemical. To be noted: for Encapsulated compound content per 50 μmol of lipid / Encapsulation efficiency / Encapsulation rate: Compound concentration when encapsulated 10 mg/mL; for encapsulation rate, encapsulation efficiency and encapsulated compound content per 50 μmol of lipid: remote loading into liposomes. How it is done:
For Example 1, Example 2, Example 3, Example 4, Example 5, Example 6, Example 7, Example 8, Example 9, Example 10, Example 11, Example 12, Example 13, Example 14, Example 15, Example 16, Example 17 and Alvocidib, an encapsulation test in liposomes was performed using a remote loading method.
<Liposome Encapsulation Test of Example 1, Example 2, Example 5, Example 6, Example 9, Example 10, Example 11, Example 12, Example 13, Example 14, Example 15, and Example 16>
Hydrogenated soybean phosphatidylcholine (COATSOME NC-21E, manufactured by NOF CORPORATION, 7.77 g), cholesterol (manufactured by Sigma, 2.78 g) and distearoylphosphatidylethanolamine-methoxypolyethylene glycol 2000 (SUNBRIGHT DSPE-020CN, manufactured by NOF CORPORATION, 2.47 g) were dissolved in tert-butyl alcohol (720 mL) warmed to 65° C. The solution was placed in an eggplant flask and frozen in a dry ice-acetone bath, and then the tert-butyl alcohol was removed by evaporation under reduced pressure to give a lipid mixture.
To the above lipid mixture was added a 250 mM ammonium sulfate solution (240 mL), and the mixture was warmed to 65° C., and dispersed by a homogenizer (ULTRA-TURRAX, manufactured by IKA) to give a crude liposome dispersion. Then, the crude liposome dispersion was dispersed by a high pressure homogenizer (Nano-Mizer NM2, manufactured by YOSHIDA KIKAI CO., LTD.) at a pressure of 100 MPa to give liposomes with an average particle size (Z-average) of about 80 nm. The liposome outer solution was replaced with 10 mM L-histidine/10% sucrose solution (pH 6.5) using a dialysis cassette (Slide-A-Lyzer G2 Dialysis Cassettes 20K MWCO, manufactured by Thermo Scientific) to give an empty liposome solution. The solution was filtered through a 0.22 μm membrane filter, and a 10 mM L-histidine/10% sucrose solution (pH 6.5) was added thereto to adjust the total lipid concentration to 50 mM (50 μmol/mL). The lipid concentration was determined by quantitatively analyzing cholesterol using HPLC and calculating the total lipid concentration from the lipid mixing ratio. The amount for the above adjustment was increased or decreased as appropriate.
The compound (10 mg) was weighed, and the empty liposome solution (1 mL) with a total lipid concentration of 50 mM was added thereto. The solution was adjusted to pH 5 to 6 with 1 mol/L hydrochloric acid or 1 mol/L aqueous sodium hydroxide solution as necessary, warmed in a 65° C. water bath for 2 to 3 minutes, and ice-cooled. The mixture was centrifuged at 15,000×g for 5 minutes to precipitate and remove insoluble substances.
The liposome solution (100 μL) after removing insoluble substances was taken on an ultrafiltration filter (Amicon Ultra, 100K, 0.5 mL, manufactured by Merck) and centrifuged at 4° C., 15,000×g for 10 minutes. The compound concentrations in the liposome solution after removing insoluble substances and in the filtrate after ultrafiltration were determined by HPLC, and the encapsulation rate, encapsulation efficiency, and encapsulated compound content per 50 μmol of lipid were calculated by the following formula.
The measurement conditions for HPLC are as follows.
An empty liposome solution with a total lipid concentration of 75 mM was prepared by the same procedure as for the above example compound group. Each compound was weighed, and the empty liposome solution with a total lipid concentration of 75 mM was added thereto such that the compound concentration became 15 mg/mL. The solution was adjusted to pH 5 to 6 with 1 mol/L hydrochloric acid or 1 mol/L aqueous sodium hydroxide solution, warmed in a 65° C. water bath for 3 minutes, and ice-cooled. Hereafter, the encapsulation rate and encapsulation efficiency were calculated by the same procedure as for the above example compound group. The encapsulated compound content per 50 μmol of lipid was calculated by the following formula.
[formula] <Liposome Encapsulation Test of Example 7, Example 8 and Example 17> […]

A short description of series [2]: Pharmacokinetic test, intravenous solution and liposome formulations in mice (Experimental Example 6). Format: in vivo. The following applies: female BALB/c mice. How it is done:
This was used as a solution formulation.
This was used as a liposome formulation.
Hydrogenated soybean phosphatidylcholine (COATSOME NC-21E, manufactured by NOF CORPORATION, 3.238 g), cholesterol (manufactured by Sigma, 1.160 g) and 1,2-disteroyl-rac-glycero-3-methylpolyoxyethylen 2000 (SUNBRIGHT GS-020, manufactured by NOF CORPORATION, 0.983 g) were dissolved in tert-butyl alcohol (300 mL) warmed to 65° C. The solution was placed in an eggplant flask and frozen in a dry ice-acetone bath, and then the tert-butyl alcohol was removed by evaporation under reduced pressure to give a lipid mixture.
To the above lipid mixture was added to a 250 mM ammonium sulfate solution (100 mL), and the mixture was warmed to 65° C., and dispersed by a homogenizer (ULTRA-TURRAX, manufactured by IKA) to give a crude liposome dispersion. […] The solution was filtered through a 0.22 μm membrane filter to adjust the total lipid concentration to 75 mM (75 μmol/mL). […] The solution was adjusted to pH 5 to 6 with 1 mol/L aqueous sodium hydroxide solution, warmed in a 65° C. water bath for 3 minutes, and ice-cooled. The liposome outer solution was replaced with 10 mM tartrate buffer solution/10% sucrose solution (pH 4) using a dialysis cassette (Slide-A-Lyzer G2 Dialysis Cassettes 20K MWCO, manufactured by Thermo Scientific), followed by filtration through a 0.22 μm membrane filter to adjust the concentration.
The solution formulation or liposome formulation was instantly administered intravenously to 7-week-old female BALB/c mice, and the blood was collected over time from the jugular vein without anesthesia up to 24 hours after administration for the solution formulation administration group and up to 72 hours after administration for the liposome formulation administration group. […] The plasma sample was centrifuged, and the concentrations of the test compound and Alvocidib in the obtained supernatant were determined by LC-MS/MS.

Counter-ions that a name gives are not always drawn.

In the case of `CCN(C[C@@H]1CCCCN1)C(=O)Oc1cc(O)c2c(=O)cc(-c3ccccc3Cl)oc2c1[C@H]1CCN(C)C[C@H]1O` [Example 1, 2-(2-chlorophenyl)-5-hydroxy-8-[(3S,4R)-3-hydroxy-1-methylpiperidin-4-yl]-4-oxo-4H-1-benzopyran-7-yl ethyl{[(2S)-piperidin-2-yl]methyl}carbamate ditrifluoroacetate], in series [1], the “Encapsulated compound content per 50 μmol of lipid” value stood at 7.3 mg; the Encapsulation efficiency was 73.2%; the Encapsulation rate stood at 82.9%; the “encapsulation rate, encapsulation efficiency and encapsulated compound content per 50 μmol of lipid” value (“encapsulation rate … per 50 μmol of lipid” below) is given as “high”. For the same compound, the “Blood retention of liposome formulation compared with the corresponding solution formulation” value in series [2] is given as “higher blood retention”.
With `CCN(C[C@H]1CCCCN1)C(=O)Oc1cc(O)c2c(=O)cc(-c3ccccc3Cl)oc2c1[C@H]1CCN(C)C[C@H]1O` [Example 2, 2-(2-chlorophenyl)-5-hydroxy-8-[(3S,4R)-3-hydroxy-1-methylpiperidin-4-yl]-4-oxo-4H-1-benzopyran-7-yl ethyl{[(2R)-piperidin-2-yl]methyl}carbamate], in series [1], the “Encapsulated compound content per 50 μmol of lipid” value is given as 7.1 mg; the Encapsulation efficiency is on record as 71.1%; the Encapsulation rate is listed as 81.1%; the “encapsulation rate … per 50 μmol of lipid” value is recorded as “high”. The “Blood retention of liposome formulation compared with the corresponding solution formulation” value in series [2] is given as “higher blood retention”.
As for `CCN(CC1CCCCN1)C(=O)Oc1cc(O)c2c(=O)cc(-c3ccccc3Cl)oc2c1[C@H]1CCN(C)C[C@H]1O` (stereo partly drawn) [Example 7, 2-(2-chlorophenyl)-5-hydroxy-8-[(3S,4R)-3-hydroxy-1-methylpiperidin-4-yl]-4-oxo-4H-1-benzopyran-7-yl ethyl[(piperidin-2-yl)methyl]carbamate dihydrochloride], in series [1], the “Encapsulated compound content per 50 μmol of lipid” value is reported as 7.3 mg; the Encapsulation efficiency worked out at 72.8%; the Encapsulation rate turned out to be 81.1%; the “encapsulation rate … per 50 μmol of lipid” value is recorded as “high”.
Turning to `CN1CC[C@H](c2c(OC(=O)N(C)CC3CCCCN3)cc(O)c3c(=O)cc(-c4ccccc4Cl)oc23)[C@H](O)C1` (stereo partly drawn) [Example 8, 2-(2-chlorophenyl)-5-hydroxy-8-[(3S,4R)-3-hydroxy-1-methylpiperidin-4-yl]-4-oxo-4H-1-benzopyran-7-yl methyl[(piperidin-2-yl)methyl]carbamate], in series [1], the “Encapsulated compound content per 50 μmol of lipid” value is given as 6.1 mg; the Encapsulation efficiency was 61.1%; the Encapsulation rate was determined as 60.6%; the “encapsulation rate … per 50 μmol of lipid” value is “high”.
For the compound `CCCN(CC1CCCCN1)C(=O)Oc1cc(O)c2c(=O)cc(-c3ccccc3Cl)oc2c1[C@H]1CCN(C)C[C@H]1O` (stereo partly drawn) [Example 9, 2-(2-chlorophenyl)-5-hydroxy-8-[(3S,4R)-3-hydroxy-1-methylpiperidin-4-yl]-4-oxo-4H-1-benzopyran-7-yl [(piperidin-2-yl)methyl]propylcarbamate], in series [1], the “Encapsulated compound content per 50 μmol of lipid” value is reported as 7.2 mg; the Encapsulation efficiency is given as 72.1%; the Encapsulation rate is listed as 78.5%; the “encapsulation rate … per 50 μmol of lipid” value is recorded as “high”.
Consider `CC(C)N(CC1CCCCN1)C(=O)Oc1cc(O)c2c(=O)cc(-c3ccccc3Cl)oc2c1[C@H]1CCN(C)C[C@H]1O` (stereo partly drawn) [Example 10, 2-(2-chlorophenyl)-5-hydroxy-8-[(3S,4R)-3-hydroxy-1-methylpiperidin-4-yl]-4-oxo-4H-1-benzopyran-7-yl [(piperidin-2-yl)methyl]propan-2-ylcarbamate], for which, in series [1], the “Encapsulated compound content per 50 μmol of lipid” value turned out to be 2.3 mg, the Encapsulation efficiency was 23.0% and the Encapsulation rate is on record as 22.8%.
On to `COCCN(CC1CCCCN1)C(=O)Oc1cc(O)c2c(=O)cc(-c3ccccc3Cl)oc2c1[C@H]1CCN(C)C[C@H]1O` (stereo partly drawn) [Example 12, 2-(2-chlorophenyl)-5-hydroxy-8-[(3S,4R)-3-hydroxy-1-methylpiperidin-4-yl]-4-oxo-4H-1-benzopyran-7-yl (2-methoxyethyl) [(piperidin-2-yl)methyl]carbamate], for which, in series [1], the “Encapsulated compound content per 50 μmol of lipid” value stood at 3.6 mg, the Encapsulation efficiency is reported as 36.2% and the Encapsulation rate is given as 35.8%.
As to `CN1CC[C@H](c2c(OC(=O)N(CCC(F)(F)F)CC3CCCCN3)cc(O)c3c(=O)cc(-c4ccccc4Cl)oc23)[C@H](O)C1` (stereo partly drawn) [Example 13, 2-(2-chlorophenyl)-5-hydroxy-8-[(3S,4R)-3-hydroxy-1-methylpiperidin-4-yl]-4-oxo-4H-1-benzopyran-7-yl [(piperidin-2-yl)methyl](3,3,3-trifluoropropyl)carbamate], in series [1], the “Encapsulated compound content per 50 μmol of lipid” value stood at 3.5 mg, the Encapsulation efficiency is given as 34.6% and the Encapsulation rate is 35.2%.
`CN1CC[C@H](c2c(OC(=O)N(CCCC(F)(F)F)CC3CCCCN3)cc(O)c3c(=O)cc(-c4ccccc4Cl)oc23)[C@H](O)C1` (stereo partly drawn) [Example 14, 2-(2-chlorophenyl)-5-hydroxy-8-[(3S,4R)-3-hydroxy-1-methylpiperidin-4-yl]-4-oxo-4H-1-benzopyran-7-yl [(piperidin-2-yl)methyl](4,4,4-trifluorobutyl)carbamate]: in series [1], the “Encapsulated compound content per 50 μmol of lipid” value was determined as 2.8 mg, the Encapsulation efficiency was determined as 28.4% and the Encapsulation rate came to 26.6%.
With `CN1CC[C@H](c2c(OC(=O)N(Cc3ccccc3)CC3CCCCN3)cc(O)c3c(=O)cc(-c4ccccc4Cl)oc23)[C@H](O)C1` (stereo partly drawn) [Example 15, 2-(2-chlorophenyl)-5-hydroxy-8-[(3S,4R)-3-hydroxy-1-methylpiperidin-4-yl]-4-oxo-4H-1-benzopyran-7-yl benzyl [(piperidin-2-yl)methyl]carbamate], in series [1], the “Encapsulated compound content per 50 μmol of lipid” value came out at 2.2 mg, the Encapsulation efficiency worked out at 22.2% and the Encapsulation rate worked out at 23.6%.
On to `CCN(CCC1CCCCN1)C(=O)Oc1cc(O)c2c(=O)cc(-c3ccccc3Cl)oc2c1[C@H]1CCN(C)C[C@H]1O` (stereo partly drawn) [Example 16, 2-(2-chlorophenyl)-5-hydroxy-8-[(3S,4R)-3-hydroxy-1-methylpiperidin-4-yl]-4-oxo-4H-1-benzopyran-7-yl ethyl[2-(piperidin-2-yl)ethyl]carbamate], for which, in series [1], the “Encapsulated compound content per 50 μmol of lipid” value came out at 2.2 mg, the Encapsulation efficiency stood at 21.7% and the Encapsulation rate is 20.7%.
